Results taken from PubChem BioAssay (NCI).
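Tested at 5 concentrations; 48 h exposure; 96-well plates; endpoints linearly interpolated, else capped at highest concentration. TGI is the concentration that stops growth completely.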

Legend:
Assay in all cases: inhibition of tumour cell growth, NCI panel, 48 h
HOP-92 NSCLC = tested on: HOP-92 NSCLC
786-0 renal = tested on: 786-0 renal
K-562 leukemia = tested on: K-562 leukemia
A498 renal = tested on: A498 renal
MALME-3M melanoma = tested on: MALME-3M melanoma
SN12C renal = tested on: SN12C renal
MDA-N = tested on: MDA-N
HS 578T breast = tested on: HS 578T breast
T-47D breast = tested on: T-47D breast
HL-60(TB) leukemia = tested on: HL-60(TB) leukemia
HCT-15 colon = tested on: HCT-15 colon

SMILES	TGI (HOP-92 NSCLC)	TGI (786-0 renal)	TGI (K-562 leukemia)	TGI (A498 renal)	TGI (MALME-3M melanoma)	TGI (SN12C renal)	TGI (MDA-N)	TGI (HS 578T breast)	TGI (T-47D breast)	TGI (HL-60(TB) leukemia)	TGI (HCT-15 colon)
CSc1nc2ccccc2c(=O)n1/N=C1\C(=O)N(CN2CCOCC2)c2ccc(Cl)cc21	> 100 µM	> 100 µM	> 100 µM	> 100 µM	> 100 µM	> 100 µM	> 100 µM	> 100 µM	> 100 µM	64 µM	> 100 µM
O=C(Nc1ccccc1)c1cc2c(cc1Cl)Sc1nccn1S2(=O)=O	18.5 µM	71.4 µM	> 100 µM	> 70.9 µM	74.3 µM	> 100 µM	> 100 µM	> 84.4 µM	> 72.9 µM	56.1 µM	> 75.3 µM
CCOC(=O)c1c(SC(=O)c2cc(OC)c(OC)c(OC)c2)n(-c2ccccc2)c(=S)n(-c2ccccc2)c1=O	> 100 µM	> 100 µM	> 100 µM	> 100 µM	> 100 µM	> 100 µM	> 100 µM	> 100 µM	> 100 µM	> 100 µM	> 100 µM
CC1(C)C2CCC1(CS(=O)(=O)Nc1ccccc1)C(=O)C2 (stereo unspecified)	> 100 µM	> 100 µM	> 100 µM	> 100 µM	> 100 µM	> 100 µM	> 100 µM	> 100 µM	> 100 µM	> 100 µM	> 100 µM
COC(=O)c1c(OC(C)=O)ccc2c1c1c(OC(C)=O)c3ccccc3c(OC(C)=O)c1n2Cc1cc(OC)cc(OC)c1	5.35 µM	> 100 µM	> 100 µM	89.8 µM	70.6 µM	> 100 µM	81.4 µM	> 100 µM	48.9 µM	> 100 µM	> 100 µM
O=C1Cc2c(-c3ccc(Cl)cc3)cc(-c3ccccc3)nc2-c2ccccc2N1	14.6 µM	4.92 µM	> 100 µM	6.67 µM	> 64 µM	25 µM	55.8 µM	29.1 µM	12.9 µM	> 100 µM	> 44.8 µM
COCn1c2ccc(OC(C)=O)cc2c2c(=O)oc(C)nc21	> 100 µM	> 100 µM	> 100 µM	> 100 µM	> 100 µM	> 100 µM	> 100 µM	> 100 µM	> 100 µM	> 100 µM	> 100 µM
CN(Cc1c2ccccc2cc2ccccc12)S(=O)(=O)c1ccc(-c2c3nc(c(-c4ccc(S(=O)(=O)N(C)Cc5c6ccccc6cc6ccccc56)cc4)c4ccc([nH]4)c(-c4ccc(S(=O)(=O)N(C)Cc5c6ccccc6cc6ccccc56)cc4)c4nc(c(-c5ccc(S(=O)(=O)N(C)Cc6c7ccccc7cc7ccccc67)cc5)c5ccc2[nH]5)C=C4)C=C3)cc1	83.4 µM	> 100 µM	> 100 µM	> 100 µM	> 100 µM	> 100 µM	> 100 µM	> 100 µM	> 100 µM	> 100 µM	> 100 µM
CCCC(Sc1nc(N)nc2nc[nH]c12)C(=O)O (stereo unspecified)	> 100 µM	> 100 µM	> 100 µM	> 100 µM	> 100 µM	> 100 µM	> 100 µM	> 100 µM	> 100 µM	> 100 µM	> 100 µM
Cc1cc2c(cc1-c1cc3c(cc1C)C(C(C)C)=C(O)C(=O)/C3=C\Nc1nc(-c3ccccc3)cs1)/C(=C/Nc1nc(-c3ccccc3)cs1)C(=O)C(O)=C2C(C)C	55.7 µM	> 100 µM	> 100 µM	98.6 µM	> 100 µM	48.4 µM	> 100 µM	> 100 µM	> 100 µM	> 100 µM	58.4 µM
COCn1c(C)c(C)c2c(=O)oc(=O)[nH]c21	> 100 µM	> 100 µM	> 100 µM	> 100 µM	> 100 µM	> 100 µM	> 100 µM	> 100 µM	> 100 µM	> 100 µM	> 100 µM
